A short description of the data set: Sea salt added to the turmeric mixture, folliculitis after treatment. Format: in vivo. The text has this:
It is believed that the sea salt help to open or penetrate the cellular wall. […] It is believed that the sea salt should be between about 1-10 parts of the turmeric mixture, with the remaining 90-99 parts being turmeric and milk/clay/etc. A presently preferred range is about 1-2 parts sea salt to about […] turmeric mixture.

As for sea salt, the folliculitis after treatment entry was “appears to help to minimize folliculitis”.

The record behind these values is patent publication US20140044814A1, “Composition and Methods for Permanent Hair Removal” (priority 2012, published 2014).
